Source: patent US20090069301A1, “Acridine and Quinoline Derivatives as Sirtuin Modulators” (Sirtris Pharmaceuticals, Inc., priority 2005, published 2009)

Biological target: T1, SIRT1 (Homo sapiens, UniProt Q96EB6)
T1 sequence (Q96EB6 1-747): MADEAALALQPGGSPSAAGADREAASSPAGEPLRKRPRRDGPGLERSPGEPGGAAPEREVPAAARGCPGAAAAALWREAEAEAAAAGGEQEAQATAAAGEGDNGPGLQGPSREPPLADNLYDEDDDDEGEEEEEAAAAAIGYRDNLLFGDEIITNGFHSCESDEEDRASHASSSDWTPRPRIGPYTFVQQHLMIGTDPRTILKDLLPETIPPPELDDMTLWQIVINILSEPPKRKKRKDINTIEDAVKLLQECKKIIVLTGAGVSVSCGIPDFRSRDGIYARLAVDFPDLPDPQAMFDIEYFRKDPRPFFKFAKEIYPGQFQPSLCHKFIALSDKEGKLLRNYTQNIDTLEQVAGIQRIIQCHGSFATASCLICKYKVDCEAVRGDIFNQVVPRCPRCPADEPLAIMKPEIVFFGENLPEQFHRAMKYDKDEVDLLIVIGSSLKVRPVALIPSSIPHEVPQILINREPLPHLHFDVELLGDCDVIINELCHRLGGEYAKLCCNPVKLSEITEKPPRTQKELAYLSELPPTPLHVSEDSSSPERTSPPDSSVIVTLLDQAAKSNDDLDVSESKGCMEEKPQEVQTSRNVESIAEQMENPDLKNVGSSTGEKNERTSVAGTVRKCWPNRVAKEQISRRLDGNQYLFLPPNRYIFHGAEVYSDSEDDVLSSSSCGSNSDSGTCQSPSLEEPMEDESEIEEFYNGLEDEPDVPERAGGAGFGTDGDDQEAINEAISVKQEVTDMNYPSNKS
Assay: Fluorescence polarization or mass spectrometry based assay to identify modulators of SIRT1 activity (p53-based peptide deacetylation);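 note: recombinant His-tagged human SIRT1 deacetylating p53-derived acetylated peptide, detected by fluorescence polarization after trypsin cleavage, signal inversely tracking deacetylase activity, compared against activity without test compound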
Assay type: biochemical
Settings: activation of SIRT1, Table 4; read-out: ED50 (the source's name)

Structure (SMILES)	EC50
O=C(NCc1ccncc1)c1cc(-c2ccsc2)nc2ccccc12 [Compound 1]	< 50 µM
COc1cc(C(=O)NNc2c3ccccc3nc3ccccc23)cc(OC)c1OC [Compound 3]	< 50 µM
CCCOc1cccc(-c2cc(C(=O)NCCN3CCOCC3)c3ccccc3n2)c1 [Compound 4]	> 150 µM
Cc1ccc2nc(-c3cccs3)cc(C(=O)NCCN3CCOCC3)c2c1 [Compound 6]	< 50 µM
CCN(CC)S(=O)(=O)c1ccc(N2CCOCC2)c(NC(=O)c2cc(-c3ccccn3)nc3ccccc23)c1 [Compound 9]	> 150 µM
O=C(NNc1c2ccccc2nc2ccccc12)c1ccncc1 [Compound 10]	< 50 µM
O=C(NNc1c2ccccc2nc2ccccc12)c1cccnc1 [Compound 11]	< 50 µM
Cc1ccc2nc(-c3ccco3)cc(C(=O)NCCCCN3CCN(C)CC3)c2c1 [Compound 17]	> 150 µM
Cc1ccc2nc(-c3cccs3)cc(C(=O)NCCCN3CCN(C)CC3)c2c1 [Compound 18]	> 150 µM
Cc1ccc2nc(-c3ccco3)ccc2c1C(=O)NCCCN1CCCCC1 [Compound 20]	> 150 µM
Cc1ccc2nc(-c3cccs3)ccc2c1C(=O)NCCCN1CCCCC1 [Compound 21]	> 150 µM
O=C(NNc1cc(-c2ccccc2)nc2ccccc12)c1ccccn1 [Compound 22]	< 50 µM
O=C(NNc1cc(-c2ccccc2)nc2ccccc12)c1ccc(Cl)cc1 [Compound 23]	< 50 µM
COc1cc(C(=O)NNc2cc(-c3ccccc3)nc3ccccc23)cc(OC)c1OC [Compound 24]	> 150 µM
CN(C)c1ccc(C(=O)NNc2cc(-c3ccccc3)nc3ccccc23)cc1 [Compound 25]	> 150 µM
COc1ccc(C(=O)NNc2cc(-c3ccccc3)nc3ccccc23)cc1OC [Compound 26]	< 50 µM
COc1cc(NC(=O)c2cc(-c3ccccc3)nc3ccccc23)cc(OC)c1OC [Compound 27]	> 150 µM
Cc1ccc2nc(-c3ccco3)cc(C(=O)N3CCCCC3)c2c1 [Compound 30]	> 150 µM
Cc1ccc2nc(-c3ccco3)cc(C(=O)NCCCN3CCOCC3)c2c1 [Compound 31]	> 150 µM
Cc1ccc2nc(-c3ccco3)cc(C(=O)N(C)CCN(C)C)c2c1 [Compound 32]	> 150 µM
Cc1ccc2nc(-c3ccco3)cc(C(=O)N3CCN(C)CC3)c2c1 [Compound 33]	> 150 µM
Cc1ccc2nc(-c3ccco3)cc(C(=O)NCCN3CCCCC3)c2c1 [Compound 34]	> 150 µM
Cc1ccc2nc(-c3ccco3)cc(C(=O)N3CCOCC3)c2c1 [Compound 35]	> 150 µM
Cc1ccc2nc(-c3ccccc3)cc(C(=O)NCCCN3CCCCC3)c2c1 [Compound 44]	> 150 µM
Cc1ccc2nc(-c3ccccc3)cc(C(=O)NCCCN3CCN(C)CC3)c2c1 [Compound 45]	> 150 µM
Cc1ccc2nc(-c3ccco3)cc(C(=O)NCCN(C)CCN(C)C)c2c1 [Compound 46]	> 150 µM

Structure (SMILES)	EC50
Cc1ccc2nc(-c3ccco3)cc(C(=O)NCCCN3CCN(C)CC3)c2c1 [Compound 47]	> 150 µM
Cc1ccc2nc(-c3cccs3)cc(C(=O)N3CCCCC3)c2c1 [Compound 48]	> 150 µM
Cc1ccc2nc(-c3cccs3)cc(C(=O)N3CCN(C)CC3)c2c1 [Compound 49]	> 150 µM
Cc1ccc2nc(-c3cccs3)cc(C(=O)N3CCCN(C)CC3)c2c1 [Compound 50]	> 150 µM
Cc1ccc2nc(-c3cccs3)cc(C(=O)N(C)CCN(C)C)c2c1 [Compound 51]	> 150 µM
Cc1ccc2nc(-c3cccs3)cc(C(=O)NCCN3CCCCC3)c2c1 [Compound 52]	> 150 µM
Cc1ccc2nc(-c3cccs3)cc(C(=O)NCCCN3CCOCC3)c2c1 [Compound 53]	> 150 µM
CC(C)c1cc(NC(=O)c2c3ccccc3nc3ccccc23)n(-c2ccccc2)n1 [Compound 118]	< 50 µM
COc1cc(C(=O)NNc2c3c(nc4ccccc24)CCCC3)cc(OC)c1OC [Compound 120]	< 50 µM
c1ccc(NNc2c3ccccc3nc3ccccc23)nc1 [Compound 121]	< 50 µM
c1ccc2c(c1)Oc1ccccc1C2n1nnc2ccccc21 [Compound 124]	> 150 µM
CC(C)c1cc(NCc2c3ccccc3nc3ccccc23)n(-c2ccccc2)n1 [Compound 125]	> 150 µM
COc1cc(NCc2c3ccccc3nc3ccccc23)cc(OC)c1OC [Compound 127]	> 150 µM
O=C(Nc1ccc(N2CCCCC2)cc1)c1c2ccccc2nc2ccccc12 [Compound 128]	> 150 µM
O=C(Nc1ccccc1-n1cccc1)c1c2ccccc2nc2ccccc12 [Compound 129]	> 150 µM
Cc1ccc(-c2cccc(NC(=O)c3c4ccccc4nc4ccccc34)c2)cc1C [Compound 130]	> 150 µM
CC(C)c1cc(Nc2c3ccccc3nc3ccccc23)n(-c2ccccc2)n1 [Compound 131]	> 150 µM
O=C(NNC(=O)c1c2ccccc2nc2ccccc12)c1cc(F)cc(F)c1 [Compound 134]	> 150 µM
CS(=O)(=O)c1ccc(F)c(NC(=O)c2c3ccccc3nc3ccccc23)c1 [Compound 135]	> 150 µM
COc1ccccc1N1CCN(C(=O)c2c3ccccc3nc3ccccc23)CC1 [Compound 136]	> 150 µM
COc1cc(-c2nnc(-c3c4ccccc4nc4ccccc34)o2)cc(OC)c1OC [Compound 137]	< 50 µM
O=C(Nc1ccc2c(c1)OCO2)Nc1c2ccccc2nc2ccccc12 [Compound 153]	> 150 µM
COc1cc(C(=O)NN(C)c2c3ccccc3nc3ccccc23)cc(OC)c1OC [Compound 154]	> 150 µM
CN(NC(=O)c1ccncc1)c1c2ccccc2nc2ccccc12 [Compound 155]	< 50 µM
O=C(Nc1c2c(nc3ccccc13)CCCC2)c1ccncc1 [Compound 157]	> 150 µM
CCCCc1ccc(NC(=O)c2c3c(nc4ccccc24)CCCC3)cc1 [Compound 160]	> 150 µM

Same assay, conditions: inhibition of SIRT1, Table 5

Structure (SMILES)	IC50
Cc1ccc2nc(-c3ccccc3)cc(C(=O)NCCCN3CCOCC3)c2c1 [Compound 169]	> 150 µM
Cc1ccc2nc(-c3ccccc3)cc(C(=O)NCCCCCN3CCOCC3)c2c1 [Compound 170]	> 150 µM
Cc1ccc2nc(-c3ccccc3)cc(C(=O)NCCCCCN3CCCCC3)c2c1 [Compound 171]	> 150 µM
Cc1ccc2nc(-c3cccs3)cc(C(=O)N3CCOCC3)c2c1 [Compound 172]	> 150 µM
